This passage reports hemolysis results from patent US5969098A, “Yeast-toxin-related protein for antimicrobial vaccine and sterilizing preservative use” (CyberChemics, Inc., priority 1997, dated 1999).

Where no end group is shown, it is not given here.

The test system of the data set is human red blood cells. The data set can be described thus: hemolysis of human red blood cells in whole blood (extracellular hemoglobin, spectrophotometric). In kind it is cell-based. The settings on record: human red blood cells exposed in whole blood, peptide concentration 63 ug/mL. From the text: Table III lists the approximate pharmacokinetics of synthetic peptides described in the present invention which solubilize readily, persist in conformationally active secondary structures in vivo, and induce lysis of representative bacteria, yeast and fungi. These determinations derive from optical density readings (O.D.) and rely on spectrophotometric absorbance from known initial concentrations as reference standards. It is worth noting that although the peptide antimicrobials show 30+% homology with the yeast killer toxin beta subunit fragment, they have very favorable safety profiles on mammalian cells. For example, when human red blood cells are exposed in whole blood to SEQ. […] Perhaps, as significant, the safety profile derives from very specific amino acid substitutions, since substitution for less than 20% of the amino acids in SEQ. 1 renders SEQ. 2 hemolytic to 20% at 63 ug/mL and 35% substitution in SEQ. 1 renders SEQ. 3 hemolytic to 100%. Therefore, sequence identity and variation translate directly to the functional balance between microbial inhibition and mammalian safety. The optimal therapeutic index for dosage and effective antimicrobial inhibition of a particular polypeptide or salt thereof follow routinely without elaborate laboratory determinations by those skilled in the art of pharmacokinetics and metabolic pathways using, for instance, various cytochrome and liver enzymes in vivo.
In turn, LLLLKKLLKLMNLLKKLGHY [SEQ. 3] gave a hemolysis of 100%.
Consider LLLLKLLLKKNPKLKKLIGV [SEQ. 2], for which the hemolysis came out at 20%.
With LVLLKKLMKKYKKLKKLGGL [SEQ. 1] the entry was “no hemolysis is detectable”.
